Test results reported in paper PMC10610505, “Synthesis and Biological Evaluation of Some New 3-Aryl-2-thioxo-2,3-dihydroquinazolin-4(1H)-ones and 3-Aryl-2-(benzylthio)quinazolin-4(3H)-ones as Antioxidants; COX-2, LDHA, α-Glucosidase and α-Amylase Inhibitors; and Anti-Colon Carcinoma and Apoptosis-Inducing Agents” (Pharmaceuticals, 2023).

Experiments:
caspase-9 = test: Western blot of caspase-9 in cell lysates; type: cell-based, human; settings: 50 µg/mL, 48 h
Procedure: Furthermore, in order to confirm the implication of these compounds in the apoptotic pathways trigged by caspases, the proteins levels of caspases 8 and 9 were evaluated using Western blot analysis for the HCT-116 and LoVo carcinoma cells lysates after treatment with compounds 3a and 3f (50 µg/mL for 48 h); the untreated cells were used as a negative control.
In order to determine the levels of production of caspases 8 and 9 by the treated carcinoma cells, Western blot analysis was carried out using a FLAG® Western Detection Kit (Agilent Technologies, USA). Exponentially growing HCT-116 and LoVo cells were treated with 50 µg/mL of derivatives 3a and 3f for 48 h. After incubation, the cells were harvested and lysed using a Lysis buffer consisting of 10 mM of Tris, 100 mM of NaCl, 25 mM of ethylenediaminetetra aceticacid (EDTA), 25 mM of Ethylene glycol bis(2-aminoethyl)tetraacetic acid (EGTA), 0.1% Sodium dodecyl sulfate (SDS), 1% (v/v) Triton X-100 and 2% (v/v) NP-40 (pH 7.4), with a 1:200 protease inhibitor cocktail (Sigma-Adrich) and a 1:300 phosphatase inhibitor cocktail tablet (Roche Applied Science, Mannheim, Germany). The protein concentrations of each sample were determined calorimetrically using the Bradford method before proceeding to carry out the Western blotting. Equal amounts (20 µg) of the protein samples were mixed and boiled with SDS Loading buffer for 10 min, allowed to cool on ice and then loaded into SDS-polyacrylamide gel and separated using a Cleaver electrophoresis unit (Cleaver, Warwickshire, UK), before being transferred onto polyvinylidene fluoride (PVDF) membranes (Bio-Rad, USA) for 30 min using a Semi-dry Electroblotter (Biorad, USA) at 2.5 A and 25 V for 30 min. The membrane was blocked with 5% nonfat dry milk in TBS-T for two hours at room temperature, in order to reduce non-specific protein interactions between the membrane and the antibody. The blocked membrane was incubated overnight at 4 °C with primary antibodies (Cell Signaling Technology, Massachusetts, USA) and β-actin (Sigma). […] Briefly, the membranes were incubated for 1 min with a mixture of equal volumes of ECL solution A and ECL solution B. The chemiluminescent signals were captured using a CCD camera-based imager (Chemi Doc imager, Biorad, USA), and the bands’ intensities were then measured using ImageLab v3.0 (Bio-Rad). […] The proteins were detected using an enhanced chemiluminescence (ECL) detection system (Thermo Fischer Scientific, USA). The intensities of the bands were quantified using the NIH ImageJ software v3.0.1 (http://rsb.info.nih.gov/ij/).

COX-2 = biological target: T1, COX-2 (Homo sapiens, UniProt P35354); test: COX-2 inhibitory screening assay (Cayman kit); type: biochemical; settings: for Increase in COX-2 inhibitory efficiency by duplicating the concentration: % inhibition at 0.200 mg/mL divided by % inhibition at 0.100 mg/mL; for inhibition at 100 µg/mL: at 0.100 mg/mL; for inhibition at 100 µg/mL / inhibition at 200 µg/mL: read-out: COX-2 mean % inhibition ± SD; for inhibition at 200 µg/mL: at 0.200 mg/mL
T1 construct: purchased Cayman Chemical Company 701080
T1 sequence (P35354 18-604): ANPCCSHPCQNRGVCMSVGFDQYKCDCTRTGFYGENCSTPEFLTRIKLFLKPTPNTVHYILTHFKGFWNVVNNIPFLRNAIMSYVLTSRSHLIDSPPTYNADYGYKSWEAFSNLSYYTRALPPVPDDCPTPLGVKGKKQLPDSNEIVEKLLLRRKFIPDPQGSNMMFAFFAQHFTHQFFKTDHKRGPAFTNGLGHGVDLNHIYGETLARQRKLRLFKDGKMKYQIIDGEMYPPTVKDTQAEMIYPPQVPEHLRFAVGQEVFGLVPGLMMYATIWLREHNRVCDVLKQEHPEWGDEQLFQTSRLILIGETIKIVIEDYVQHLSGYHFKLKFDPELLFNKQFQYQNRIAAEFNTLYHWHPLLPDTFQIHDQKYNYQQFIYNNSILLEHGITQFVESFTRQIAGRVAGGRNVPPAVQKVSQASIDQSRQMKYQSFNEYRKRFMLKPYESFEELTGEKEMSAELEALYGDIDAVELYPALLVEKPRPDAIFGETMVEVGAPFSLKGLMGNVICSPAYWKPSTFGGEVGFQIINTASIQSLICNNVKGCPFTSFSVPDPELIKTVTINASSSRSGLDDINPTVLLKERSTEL
Procedure, shortened: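 Human COX-2 with heme preincubated with compound 10 min at 37° C in Tris-HCl pH 8.0 with phenol and EDTA, then arachidonic acid added for 2 min at 37° C. PGF2α, formed by stannous chloride reduction, quantified by enzyme immunoassay at 410 nm; % inhibition versus untreated control.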

| Structure (SMILES) | Increase in expression level of caspase-9 (caspase-9; lysates of HCT-116) [times] | Increase in expression level of caspase-9 (caspase-9; lysates of LoVo) [times] | Increase in COX-2 inhibitory efficiency by duplicating the concentration (COX-2) [fold] | inhibition at 100 µg/mL (COX-2) [%] | inhibition at 200 µg/mL (COX-2) [%] | IC50 (COX-2; mean ± SD of three replicates) [µM] |
| --- | --- | --- | --- | --- | --- | --- |
| O=c1c2cc(Cl)ccc2[nH]c(=S)n1-c1cccc(C(F)(F)F)c1 [Compound 3a, 6-Chloro-2-thioxo-3-(3-trifluoromethyl-phenyl)-2,3-dihydro-1H-quinazolin-4-one] | 3.6 | 7.2 | 1.70 | 57 ± 2.83 | 97 ± 1.34 | 281 |
| O=c1c2cc(Cl)ccc2[nH]c(=S)n1-c1ccc([N+](=O)[O-])cc1 [Compound 3f, 6-Chloro-3-(4-nitro-phenyl)-2-thioxo-2,3-dihydro-1H-quinazolin-4-one] | 3.1 | 4.8 | 2.34 | 11.4 ± 0.778 | 26.8 ± 3.89 | – |
